Laboratory results taken from PubChem BioAssay (NCI).
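48-hour exposure; five concentrations; linearly interpolated endpoints. The concentration for full growth arrest is given as TGI.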

How the values were obtained:
Assay in all cases: NCI anticancer screen, dose series, 48 h
[1] = test system: CCRF-CEM leukemia
[2] = test system: RPMI-8226 leukemia
[3] = test system: 786-0 renal
[4] = test system: UO-31 renal
[5] = test system: SW-620 colon
[6] = test system: HCT-116 colon
[7] = test system: SNB-78 CNS
[8] = test system: M19-MEL melanoma
[9] = test system: MALME-3M melanoma
[10] = test system: SNB-19 CNS
[11] = test system: UACC-257 melanoma
[12] = test system: A498 renal
[13] = test system: ACHN renal
[14] = test system: A549 NSCLC
[15] = test system: OVCAR-8 ovarian
[16] = test system: LXFL 529 NSCLC
[17] = test system: RXF 393 renal
[18] = test system: NCI-H226 lung
[19] = test system: M14 melanoma
[20] = test system: SF-295 CNS
[21] = test system: OVCAR-5 ovarian
[22] = test system: LOX IMVI melanoma
[23] = test system: KM20L2 colon
[24] = test system: HT29 colon
[25] = test system: HOP-62 NSCLC
[26] = test system: K-562 leukemia
[27] = test system: SF-268 CNS
[28] = test system: U251 CNS
[29] = test system: SK-OV-3 ovarian
[30] = test system: SN12C renal
[31] = test system: OVCAR-4 ovarian
[32] = test system: EKVX NSCLC
[33] = test system: SK-MEL-28 melanoma
[34] = test system: COLO 205 colon
[35] = test system: SF-539 CNS
[36] = test system: DLD-1 colon
[37] = test system: HCT-15 colon
[38] = test system: XF 498 CNS
[39] = test system: NCI-H23 lung
[40] = test system: NCI-H460 lung
[41] = test system: TK-10 renal
[42] = test system: SK-MEL-2 melanoma
[43] = test system: KM12 colon
[44] = test system: DMS 114 small cell lung
[45] = test system: HOP-18 NSCLC
[46] = test system: OVCAR-3 ovarian
[47] = test system: HL-60(TB) leukemia
[48] = test system: CAKI-1 renal
[49] = test system: NCI-H522 lung
[50] = test system: MOLT-4 leukemia
[51] = test system: HCC-2998 colon
[52] = test system: UACC-62 melanoma
[53] = test system: HOP-92 NSCLC
[54] = test system: SR leukemia
[55] = test system: SK-MEL-5 melanoma
[56] = test system: DMS 273 small cell lung
[57] = test system: IGROV1 ovarian
[58] = test system: SNB-75 CNS

SMILES: N#CC(C(=O)/C(=N/NC(=O)c1ccccc1O)C(C#N)c1ccc(Cl)cc1)c1ccc(Cl)cc1 (configuration not stated)
- TGI [1]: > 100 µM
- TGI [2]: 53 µM
- TGI [3]: 29.9 µM
- TGI [4]: 30.9 µM
- TGI [5]: 29.1 µM
- TGI [6]: 40.2 µM
- TGI [7]: > 100 µM
- TGI [8]: 55.3 µM
- TGI [9]: 25.5 µM
- TGI [10]: 30.2 µM
- TGI [11]: 27.7 µM
- TGI [12]: 25.5 µM
- TGI [13]: 29.6 µM
- TGI [14]: 72.8 µM
- TGI [15]: 26.3 µM
- TGI [16]: 25.1 µM
- TGI [17]: 16.4 µM
- TGI [18]: 31.8 µM
- TGI [19]: 38.8 µM
- TGI [20]: 29.9 µM
- TGI [21]: 34.3 µM
- TGI [22]: 27.3 µM
- TGI [23]: 27.2 µM
- TGI [24]: 24.6 µM
- TGI [25]: 38.7 µM
- TGI [26]: 79.1 µM
- TGI [27]: 32.2 µM
- TGI [28]: 22.5 µM
- TGI [29]: 90.5 µM
- TGI [30]: 26.4 µM
- TGI [31]: 33.9 µM
- TGI [32]: 36.9 µM
- TGI [33]: 27.7 µM
- TGI [34]: 86.5 µM
- TGI [35]: 31.3 µM
- TGI [36]: 33 µM
- TGI [37]: 37.7 µM
- TGI [38]: 26.3 µM
- TGI [39]: 23.7 µM
- TGI [40]: 29.7 µM
- TGI [41]: 31.3 µM
- TGI [42]: 30.1 µM
- TGI [43]: 30 µM
- TGI [44]: 69.7 µM
- TGI [45]: 23.6 µM
- TGI [46]: 35.5 µM
- TGI [47]: 53.1 µM

SMILES: NC(=O)C(=O)N/N=C1/c2ccccc2CC1C1(O)C(=O)Nc2c(Cl)cc(Cl)cc21 (configuration not stated)
- TGI [48]: > 100 µM
- TGI [1]: > 100 µM
- TGI [49]: > 100 µM
- TGI [2]: > 100 µM
- TGI [50]: > 100 µM
- TGI [4]: > 100 µM
- TGI [5]: > 100 µM
- TGI [6]: > 100 µM
- TGI [7]: > 100 µM
- TGI [8]: > 100 µM
- TGI [9]: > 100 µM
- TGI [10]: > 100 µM
- TGI [11]: > 100 µM
- TGI [12]: > 100 µM
- TGI [13]: > 100 µM
- TGI [14]: > 100 µM
- TGI [15]: > 100 µM
- TGI [17]: > 100 µM
- TGI [18]: > 100 µM
- TGI [20]: > 100 µM
- TGI [21]: > 100 µM
- TGI [22]: > 100 µM
- TGI [23]: > 100 µM
- TGI [51]: > 100 µM
- TGI [24]: > 100 µM
- TGI [25]: > 100 µM
- TGI [52]: > 100 µM
- TGI [26]: > 100 µM
- TGI [27]: > 100 µM
- TGI [28]: > 100 µM
- TGI [29]: > 100 µM
- TGI [30]: > 100 µM
- TGI [31]: > 100 µM
- TGI [32]: > 100 µM
- TGI [33]: > 100 µM
- TGI [34]: > 100 µM
- TGI [35]: > 100 µM
- TGI [36]: > 100 µM
- TGI [37]: > 100 µM
- TGI [38]: > 100 µM
- TGI [53]: > 100 µM
- TGI [39]: > 100 µM
- TGI [40]: > 100 µM
- TGI [54]: > 100 µM
- TGI [41]: > 100 µM
- TGI [42]: > 100 µM
- TGI [43]: > 100 µM
- TGI [44]: > 100 µM
- TGI [55]: > 100 µM
- TGI [45]: > 100 µM
- TGI [56]: > 100 µM
- TGI [57]: > 100 µM
- TGI [46]: > 100 µM
- TGI [47]: > 100 µM
- TGI [58]: > 100 µM
